Laboratory results from US10752595B2, “Crystalline forms of a bromodomain and extraterminal protein inhibitor drug, processes for preparation thereof, and use thereof” (Crystal Pharmaceutical (Suzhou) Co., Ltd., priority 2016, dated 2020).
≈ marks a conversion by molar mass, not a printed value. Entries after “also recorded” stand apart in the source; their conditions may differ.

How the values were obtained:
Format in all cases: physicochemical
[1] = Solubility study: saturated solutions in SGF and FeSSIF, concentration by HPLC; details: for Solubility FeSSIF: FeSSIF (fed state simulated intestinal fluids, pH=5.0)
Source text: High Performance Liquid Chromatography (HPLC) data in the present disclosure were collected from an Agilent 1260 with Diode Array Detector (DAD). The HPLC method parameters for purity test in the present disclosure are as follows: • 1. Column: Waters XBridge C18 150×4.6 mm, 5 μm • 2. Mobile Phase: A: 0.1% TFA in H2O • B: 0.1% TFA in Acetonitrile
The prepared apabetalone Form CS2 was suspended into SGF (simulated gastric fluids) and FeSSIF (fed state simulated intestinal fluids, pH=5.0) to obtain saturated solutions. After being equilibrated for 1 h and 24 h, concentrations of the saturated solutions were measured by HPLC.
The prepared Form CS8 was suspended into SGF (simulated gastric fluids) and FeSSIF (fed state simulated intestinal fluids, pH=5.0) to obtain saturated solutions. After being equilibrated for 1 h, concentrations of the saturated solutions were measured by HPLC.
The prepared Form CS13 was suspended into SGF (simulated gastric fluids) and FeSSIF (fed state simulated intestinal fluids, pH=5.0) to obtain saturated solutions. After being equilibrated for 1 h, 4 h and 24 h, concentrations of the saturated solutions were measured by HPLC.
The prepared apabetalone Form CS20 was suspended into SGF (simulated gastric fluids) and FeSSIF (fed state simulated intestinal fluids, pH=5.0) to obtain saturated solutions. After being equilibrated for 1 h, 4 h and 24 h, concentrations of the saturated solutions were measured by HPLC.
The prepared solid of apabetalone Form CS1 was suspended into SGF (simulated gastric fluids) and FeSSIF (fed state simulated intestinal fluids, pH=5.0) to obtain saturated solutions. After being equilibrated for 1 h, 4 h and 24 h, concentrations of the saturated solutions were measured by HPLC.
The prepared solid of apabetalone Form CS7 was suspended into SGF (simulated gastric fluids) and FeSSIF (fed state simulated intestinal fluids, pH=5.0) to obtain saturated solutions. After being equilibrated for 1 h, 4 h and 24 h, concentrations of the saturated solutions were measured by HPLC.
The prepared solid of apabetalone Form CS9 was suspended into SGF (simulated gastric fluids) and FeSSIF (fed state simulated intestinal fluids, pH=5.0) to obtain saturated solutions. After being equilibrated for 1 h, 4 h and 24 h, concentrations of the saturated solutions were measured by HPLC.
The prepared solid of apabetalone Form CS11 was suspended into SGF (simulated gastric fluids) and FeSSIF (fed state simulated intestinal fluids, pH=5.0) to obtain saturated solutions. After being equilibrated for 1 h, 4 h and 24 h, concentrations of the saturated solutions were measured by HPLC.
The prepared solid of apabetalone Form CS4 was suspended into SGF (simulated gastric fluids) and FeSSIF (fed state simulated intestinal fluids, pH=5.0) to obtain saturated solutions. After being equilibrated for 1 h, 4 h and 24 h, concentrations of the saturated solutions were measured by HPLC.

[2] = Stability study: open-dish storage in constant temperature and humidity chambers, XRPD and purity check; details: for Form change and purity decrease after storage: open dish
Description: Form CS8 was placed in a constant temperature and humidity chamber at 25° C./60% RH for 2 weeks in open dish. Crystalline form of the sample were tested by XRPD and impurity of the sample were checked. […] Crystalline form of the sample were tested by XRPD and impurity of the sample were checked. […] Two samples of apabetalone Form CS1 were placed in constant temperature and humidity chambers at 25° C./60% RH and 40° C./75% RH for 10 months in open dishes. The samples were characterized by XRPD and chemical impurity. […] Three samples of apabetalone Form CS7 were placed in constant temperature and humidity chambers at 25° C./60% RH and 40° C./75% RH for 4 weeks and 80° C. for 1 day in open dishes. Crystalline form of the sample were tested by XRPD and impurity of the sample were checked. […] Two samples of apabetalone Form CS9 were placed in constant temperature and humidity chambers at 25° C./60% RH and 40° C./75% RH for 10 months in open dishes. Crystalline form of the sample were tested by XRPD and impurity of the sample were tested to check the stability of Form CS9. […] Two samples of apabetalone Form CS11 were placed in constant temperature and humidity chambers at 25° C./60% RH and 40° C./75% RH for 6 weeks in open dishes. Crystalline form of the sample were tested by XRPD and impurity of the sample were tested to check the stability of Form CS11. […] Two samples of apabetalone Form CS4 were placed in open dishes in constant temperature and humidity chambers at 25° C./60% RH and 40° C./75% RH for 10 months. Crystalline form of the sample were tested by XRPD and impurity of the sample were tested to check the stability of Form CS4.

[3] = Hygroscopicity by dynamic vapor sorption (DVS); details: for Hygroscopicity class: Chinese Pharmacopoeia 2015 criteria, 80% RH; for Hygroscopicity class / Weight Gain under 80% Relative Humidity: 25° C.; for Weight Gain under 80% Relative Humidity: DVS, about 10 mg of sample; for Form change after DVS test (XRPD): XRPD before and after DVS test
Description: Dynamic Vapor Sorption (DVS) was measured via a SMS (Surface Measurement Systems Ltd.) intrinsic DVS instrument. Its control software is DVS—Intrinsic control software, and its analysis software is DVS—Intrinsic Analysis software. Typical Parameters for DVS test are as follows: • Temperature: 25° C. • Gas and flow rate: N2, 200 mL/min • dm/dt: 0.002%/min • RH range: 0% RH to 95% RH Dynamic vapor sorption (DVS) was applied to test hygroscopicity of Form CS8 in the present disclosure with about 10 mg of sample. […] Dynamic vapor sorption (DVS) was applied to test hygroscopicity of Form CS1 of the present disclosure with about 10 mg of sample. […] Dynamic vapor sorption (DVS) was applied to test hygroscopicity of Form CS7 of the present disclosure with about 10 mg of samples. Dynamic vapor sorption (DVS) was applied to test hygroscopicity of Form CS9 of the present disclosure with about 10 mg of sample. […] Dynamic vapor sorption (DVS) was applied to test hygroscopicity of Form CS4 of the present disclosure with about 10 mg of sample.

[4] = SGF (simulated gastric fluids), equilibrated 1 h
[5] = SGF (simulated gastric fluids), equilibrated 4 h
[6] = SGF (simulated gastric fluids), equilibrated 24 h

| Compound | Solubility FeSSIF ([1]; equilibrated 1 h) | Solubility FeSSIF ([1]; equilibrated 4 h) | Solubility FeSSIF ([1]; equilibrated 24 h) | Solubility SGF [1, 4] | Solubility SGF [1, 5] | Solubility SGF [1, 6] | Time the form is stable when stored ([2]; 25° C./60% RH) | Time the form is stable when stored ([2]; 40° C./75% RH) | Hygroscopicity class [3] | Weight Gain under 80% Relative Humidity [3] | Form change after DVS test (XRPD) [3] | other results |
| --- | --- | --- | --- | --- | --- | --- | --- | --- | --- | --- | --- | --- |
| COc1cc(OC)c2c(=O)[nH]c(-c3cc(C)c(OCCO)c(C)c3)nc2c1 [Form CS20, 2-[4-(2-hydroxyethoxy)-3,5-dimethylphenyl]-5,7-dimethoxyquinazolin-4(3H)-one] | 190 µg/mL (≈ 513 µM) | 160 µg/mL (≈ 432 µM) | 220 µg/mL (≈ 594 µM) | 440 µg/mL (≈ 1190 µM) | 410 µg/mL (≈ 1110 µM) | 510 µg/mL (≈ 1380 µM) | at least 2 weeks | at least 2 weeks | – | – | – | Form change and purity decrease after storage ([2]; 25° C./60% RH, 2 weeks): No form change and obvious purity decrease; Form change and purity decrease after storage ([2]; 40° C./75% RH, 2 weeks): No form change and obvious purity decrease |
| COc1cc(OC)c2c(=O)[nH]c(-c3cc(C)c(OCCO)c(C)c3)nc2c1 [Form CS11, 2-[4-(2-hydroxyethoxy)-3,5-dimethylphenyl]-5,7-dimethoxyquinazolin-4(3H)-one] | – | – | – | 710 µg/mL (≈ 1920 µM) | 650 µg/mL (≈ 1750 µM) | 650 µg/mL (≈ 1750 µM) | at least 6 weeks | at least 6 weeks | – | – | – | Form change and purity decrease after storage ([2]; 25° C./60% RH, 6 weeks): No form change and obvious purity decrease; Form change and purity decrease after storage ([2]; 40° C./75% RH, 6 weeks): No form change and obvious purity decrease |
| COc1cc(OC)c2c(=O)[nH]c(-c3cc(C)c(OCCO)c(C)c3)nc2c1 [Form CS7, 2-[4-(2-hydroxyethoxy)-3,5-dimethylphenyl]-5,7-dimethoxyquinazolin-4(3H)-one] | 190 µg/mL (≈ 513 µM) | 170 µg/mL (≈ 459 µM) | 290 µg/mL (≈ 783 µM) | 380 µg/mL (≈ 1030 µM) | 420 µg/mL (≈ 1130 µM) | 580 µg/mL (≈ 1570 µM) | at least 4 weeks | at least 4 weeks | slightly hygroscopic (Increase in mass is less than 2 percent and equal to or greater than 0.2 percent) | 0.79% | No form change | Form change and purity decrease after storage ([2]; 25° C./60% RH, 4 weeks): No form change and obvious purity decrease; Form change and purity decrease after storage ([2]; 40° C./75% RH, 4 weeks): No form change and obvious purity decrease; Form change and purity decrease after storage ([2]; 80° C., 1 day): No form change and obvious purity decrease |
| COc1cc(OC)c2c(=O)[nH]c(-c3cc(C)c(OCCO)c(C)c3)nc2c1 [Form CS9, 2-[4-(2-hydroxyethoxy)-3,5-dimethylphenyl]-5,7-dimethoxyquinazolin-4(3H)-one] | 170 µg/mL (≈ 459 µM) | 130 µg/mL (≈ 351 µM) | 200 µg/mL (≈ 540 µM) | 300 µg/mL (≈ 810 µM) | 310 µg/mL (≈ 837 µM) | 370 µg/mL (≈ 999 µM) | at least 10 months | at least 10 months | almost non hygroscopic | 0.18% | doesn't change; also recorded: No form change | Form change and purity decrease after storage ([2]; 25° C./60% RH, 10 months): No form change and obvious purity decrease; Form change and purity decrease after storage ([2]; 40° C./75% RH, 10 months): No form change and obvious purity decrease |
| COc1cc(OC)c2c(=O)[nH]c(-c3cc(C)c(OCCO)c(C)c3)nc2c1 [Form CS13, 2-[4-(2-hydroxyethoxy)-3,5-dimethylphenyl]-5,7-dimethoxyquinazolin-4(3H)-one] | 130 µg/mL (≈ 351 µM) | 140 µg/mL (≈ 378 µM) | 140 µg/mL (≈ 378 µM) | 350 µg/mL (≈ 945 µM) | 310 µg/mL (≈ 837 µM) | 330 µg/mL (≈ 891 µM) | – | – | – | – | – | – |
| COc1cc(OC)c2c(=O)[nH]c(-c3cc(C)c(OCCO)c(C)c3)nc2c1 [Form CS2, 2-[4-(2-hydroxyethoxy)-3,5-dimethylphenyl]-5,7-dimethoxyquinazolin-4(3H)-one] | 150 µg/mL (≈ 405 µM) | – | 240 µg/mL (≈ 648 µM) | 490 µg/mL (≈ 1320 µM) | – | – | – | – | – | – | – | solubility at 24 h ([1]; SGF (simulated gastric fluids), simulated gastric fluid, thermodynamic from solid, equilibrated 24 h): 610 µg/mL (≈ 1650 µM) |
| COc1cc(OC)c2c(=O)[nH]c(-c3cc(C)c(OCCO)c(C)c3)nc2c1 [Form CS8, 2-[4-(2-hydroxyethoxy)-3,5-dimethylphenyl]-5,7-dimethoxyquinazolin-4(3H)-one] | 280 µg/mL (≈ 756 µM) | – | – | 430 µg/mL (≈ 1160 µM) | – | – | at least 2 weeks | – | slightly hygroscopic (Increase in mass is less than 2 percent and equal to or greater than 0.2 percent) | 0.34% | No form change | Form change and purity decrease after storage ([2]; 25° C./60% RH, 2 weeks): No obvious form change and purity decrease |
